In US8017612B2, “Piperazine compound and use thereof as a HCV polymerase inhibitor” (priority 2006, dated 2011):
pIC50: −log10 of the molar value. Counter-ions that a name gives are not always drawn.

Tests used:
[1] = target: T1, HCV polymerase (NS5B) type 1a (Hepatitis C virus genotype 1a, UniProt P26664); test: Assay of enzyme (HCV polymerase) inhibitory activity, type 1a enzyme; format: biochemical, HCV type 1a (cloned from the blood of patients)
T1 construct: made in house; host or cells: Escherichia coli (by the 'similar method' of the 1b enzyme)
In short: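 Patient-derived type 1a NS5B (C-terminal 47-aa deletion, His-tagged, E. coli-expressed) at 1.5 μg/ml was reacted with 5 μg/ml 3′UTR-containing substrate RNA, 50 μM ATP/GTP/CTP, 2 μM UTP plus [3H]UTP, pH 7.5, 25° C for 60 min. TCA-precipitated RNA radioactivity was counted; IC50 from ± compound.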

[2] = target: T2, HCV polymerase (NS5B) type 1b (Hepatitis C virus genotype 1b, UniProt P26663); test: Assay of enzyme (HCV polymerase) inhibitory activity, type 1b enzyme; format: biochemical, HCV BK strain (type 1b)
T2 construct: a region encoding NS5B (J Virol 1991 March, 65(3), 1105-13, 544 amino acids after deletion of 47 amino acids on the C-terminal); 6xHis (C); made in house; host or cells: Escherichia coli
In short: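 NS5B from HCV BK strain (type 1b), C-terminal 47 aa deleted, C-terminal His6-tagged, E. coli-expressed, 0.5 μg/ml, with ~450 nt substrate RNA carrying the 3′ UTR (polyU, 3′X) at 5 μg/ml. Incubation 60 min at 25 °C with 50 μM ATP/GTP/CTP, 2 μM UTP plus [3H]UTP, pH 7.5 Tris.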

[3] = HCV polymerase inhibitory activity (IC50), 1a, type 1a enzyme 1.5 μg/ml, 25° C., 60 min
[4] = HCV polymerase inhibitory activity (IC50), 1b, type 1b enzyme 0.5 μg/ml, 25° C., 60 min
[5] = HCV polymerase inhibitory activity IC50, 1a, type 1a enzyme
[6] = HCV polymerase inhibitory activity IC50, 1b, type 1b enzyme

SMILES	pIC50 [1, 3]	pIC50 [2, 4]	pIC50 [1, 5]	pIC50 [2, 6]
CCN(C)c1ccc(CNC(=O)[C@H]2CN(c3nc(C)c(C(=O)O)s3)CCN2S(=O)(=O)c2ccc(OC(F)(F)F)cc2)cc1 [Example 424, 2-[(R)-3-[4-(ethyl-methyl-amino)-benzylcarbamoyl]-4-(4-trifluoromethoxy-benzenesulfonyl)-piperazin-1-yl]-4-methyl-thiazole-5-carboxylic acid]	> 7.00	> 7.00		
Cc1nc(N2CCN(S(=O)(=O)c3ccc(OC(F)(F)F)cc3)[C@@H](C(=O)NCc3ccc(N4CCC4)cc3)C2)sc1C(=O)O [Example 398, 2-[(R)-3-(4-azetidin-1-yl-benzylcarbamoyl)-4-(4-trifluoromethoxy-benzenesulfonyl)-piperazin-1-yl]-4-methyl-thiazole-5-carboxylic acid]	6.00 to 7.00	> 7.00		
O=C(NCc1ccc(OC(F)(F)F)cc1)[C@H]1CN(c2ccc3cnccc3n2)CCN1S(=O)(=O)c1ccc(OC(F)(F)F)cc1 [Example 771, (R)-4-[1,6]naphthyridin-2-yl-1-(4-trifluoromethoxy-benzenesulfonyl)-piperazine-2-carboxylic acid 4-trifluoromethoxy-benzylamide]			> 7.00	> 7.00
CCCc1ccc(CNC(=O)[C@H]2CN(c3ccncn3)CCN2S(=O)(=O)c2ccc(OC(F)(F)F)cc2)cc1 [Example 572, (R)-4-pyrimidin-4-yl-1-(4-trifluoromethoxy-benzenesulfonyl)-piperazine-2-carboxylic acid 4-propyl-benzylamide]	> 7.00	> 7.00		
CC(=O)N1CCN(S(=O)(=O)c2ccc(OCC(F)(F)F)cc2)[C@@H](C(=O)NCc2ccc(C(C)C)cc2)C1 [Example 284, (R)-4-acetyl-1-[4-(2,2,2-trifluoro-ethoxy)-benzenesulfonyl]-piperazine-2-carboxylic acid 4-isopropyl-benzylamide]	6.00 to 7.00	> 7.00		
CC(C)c1ccc(CNC(=O)[C@H]2CN(C(=O)Nc3cccnc3)CCN2S(=O)(=O)c2ccc(C(F)(F)F)cc2)cc1 [Example 211, (R)-4-(4-trifluoromethyl-benzenesulfonyl)-piperazine-1,3-dicarboxylic acid 3-(4-isopropyl-benzylamide) 1-pyridin-3-ylamide]	6.00 to 7.00	6.00 to 7.00		
CC(C)(C)c1ccc(CNC(=O)[C@H]2CN(C(=O)/C=C/C(=O)O)CCN2S(=O)(=O)c2ccc(OC(F)(F)F)cc2)cc1 [Example 668, (E)-4-[(R)-3-(4-tert-butyl-benzylcarbamoyl)-4-(4-trifluoromethoxy-benzenesulfonyl)-piperazin-1-yl]-4-oxo-but-2-enoic acid]			< 6.00	< 6.00
CC(=O)N1CCN(S(=O)(=O)c2ccc(C(C)C)cc2)[C@@H](C(=O)NCCCN2CCOCC2)C1 [Example 404, (R)-4-acetyl-1-(4-isopropyl-benzenesulfonyl)-piperazine-2-carboxylic acid (3-morpholin-4-yl-propyl)-amide]	< 6.00	< 6.00		
CCOC(=O)COc1cccc(NC(=O)N2CCN(S(=O)(=O)c3ccc(C(F)(F)F)cc3)[C@@H](C(=O)NCc3ccc(C(C)C)cc3)C2)c1 [Example 256, (3-{[(R)-3-(4-isopropyl-benzylcarbamoyl)-4-(4-trifluoromethyl-benzenesulfonyl)-piperazine-1-carbonyl]-amino}-phenoxy)-acetic acid ethyl ester]	6.00 to 7.00	6.00 to 7.00		
NC(=O)c1n[nH]c(=O)c2sc(N3CCN(S(=O)(=O)c4ccc(OC(F)(F)F)cc4)[C@@H](C(=O)NCc4ccc(OC(F)(F)F)cc4)C3)nc12 [Example 876, 7-oxo-2-[(R)-4-(4-trifluoromethoxy-benzenesulfonyl)-3-(4-trifluoromethoxy-benzylcarbamoyl)-piperazin-1-yl]-6,7-dihydro-thiazolo[4,5-d]pyridazine-4-carboxylic acid amide]			> 7.00	> 7.00
CCCc1ccc(CNC(=O)[C@H]2CN(C(=O)Nc3nncs3)CCN2S(=O)(=O)c2ccc(OC(F)(F)F)cc2)cc1 [Example 437, (R)-4-(4-trifluoromethoxy-benzenesulfonyl)-piperazine-1,3-dicarboxylic acid 3-(4-propyl-benzylamide) 1-[1,3,4]thiadiazol-2-ylamide]	> 7.00	> 7.00		
CC(C)c1ccc(CNC(=O)[C@H]2CN(c3nc4ccccc4s3)CCN2S(=O)(=O)c2ccc(C(F)(F)F)cc2)cc1 [Example 191, (R)-4-benzothiazol-2-yl-1-(4-trifluoromethyl-benzenesulfonyl)-piperazine-2-carboxylic acid 4-isopropyl-benzylamide]	6.00 to 7.00	6.00 to 7.00		
CC(=O)N1CCN(S(=O)(=O)c2ccc3c(c2)CCCCC3)[C@@H](C(=O)NCc2ccc(C(C)C)cc2)C1 [Example 264, (R)-4-acetyl-1-(6,7,8,9-tetrahydro-5H-benzocycloheptene-2-sulfonyl)-piperazine-2-carboxylic acid 4-isopropyl-benzylamide]	> 7.00	> 7.00		
CC(C)c1ccc(CNC(=O)[C@H]2CN(C(=O)Cn3cnnc3)CCN2S(=O)(=O)c2ccc(C(F)(F)F)cc2)cc1 [Example 230, (R)-4-(2-[1,2,4]triazol-4-yl-acetyl)-1-(4-trifluoromethyl-benzenesulfonyl)-piperazine-2-carboxylic acid 4-isopropyl-benzylamide]	> 7.00	> 7.00		
CN(C)c1ccc(CNC(=O)C2CNCCN2S(=O)(=O)c2ccc(I)cc2)cc1 (stereo not drawn) [Example 84, 1-(4-iodo-benzenesulfonyl)-piperazine-2-carboxylic acid 4-dimethylamino-benzylamide hydrochloride]	< 6.00	< 6.00		
CC(C)c1ccc(CNC(=O)[C@H]2CN(C(=O)Cn3ncnn3)CCN2S(=O)(=O)c2ccc(C(F)(F)F)cc2)cc1 [Example 278, (R)-4-(2-tetrazol-2-yl-acetyl)-1-(4-trifluoromethyl-benzenesulfonyl)-piperazine-2-carboxylic acid 4-isopropyl-benzylamide]	> 7.00	> 7.00		
CCc1ccc(S(=O)(=O)N2CCN(c3cnc(C(=O)O)cn3)C[C@@H]2C(=O)NCc2ccc(OC(F)(F)F)cc2)cc1 [Example 786, (R)-4-(4-ethyl-benzenesulfonyl)-3-(4-trifluoromethoxy-benzylcarbamoyl)-3,4,5,6-tetrahydro-2H-[1,2′]bipyrazinyl-5′-carboxylic acid]			> 7.00	> 7.00
CCCc1ccc(CNC(=O)[C@H]2CN(c3cc(C)c(O)nn3)CCN2S(=O)(=O)c2ccc(OC(F)(F)F)cc2)cc1 [Example 454, (R)-4-(6-hydroxy-5-methyl-pyridazin-3-yl)-1-(4-trifluoromethoxy-benzenesulfonyl)-piperazine-2-carboxylic acid 4-propyl-benzylamide]	> 7.00	> 7.00		
CCC(F)(F)c1ccc(CNC(=O)[C@H]2CN(c3nc(C)ns3)CCN2S(=O)(=O)c2ccc(OC(F)(F)F)cc2)cc1 [Example 576, (R)-4-(3-methyl-[1,2,4]thiadiazol-5-yl)-1-(4-trifluoromethoxy-benzenesulfonyl)-piperazine-2-carboxylic acid 4-(1,1-difluoro-propyl)-benzylamide]	> 7.00	> 7.00		
CCCn1ccc(CNC(=O)[C@H]2CN(c3cnc4cncnc4n3)CCN2S(=O)(=O)c2ccc(OC(F)(F)F)cc2)cc1=O [Example 680, (R)-4-pteridin-7-yl-1-(4-trifluoromethoxy-benzenesulfonyl)-piperazine-2-carboxylic acid (2-oxo-1-propyl-1,2-dihydro-pyridin-4-ylmethyl)-amide]			< 6.00	6.00 to 7.00
CCC(F)(F)c1ccc(CNC(=O)[C@H]2CN(c3cnc4cnccc4n3)CCN2S(=O)(=O)c2ccc(N3CCCC3=O)cc2)cc1 [Example 751, (R)-1-[4-(2-oxo-pyrrolidin-1-yl)-benzenesulfonyl]-4-pyrido[3,4-b]pyrazin-2-yl-piperazine-2-carboxylic acid 4-(1,1-difluoro-propyl)-benzylamide]			> 7.00	> 7.00
CC(=O)N1CCN(S(=O)(=O)c2ccc(C(C)C)cc2)C(C(=O)NCc2ccccc2F)C1 (stereo not drawn) [Example 67, 4-acetyl-1-(4-isopropyl-benzenesulfonyl)-piperazine-2-carboxylic acid 2-fluoro-benzylamide]	< 6.00	< 6.00		
Cc1nc(N2CCN(S(=O)(=O)c3ccc(C(F)(F)F)cc3)[C@@H](C(=O)NCc3ccc(C(C)C)cc3)C2)sc1C(=O)OC(C)(C)C [Example 5, 2-[(R)-3-(4-isopropyl-benzylcarbamoyl)-4-(4-trifluoromethyl-benzenesulfonyl)-piperazin-1-yl]-4-methyl-thiazole-5-carboxylic acid tert-butyl ester]	< 6.00	< 6.00		
CC(=O)N1CCN(S(=O)(=O)c2ccc(C(C)C)s2)C(C(=O)NCc2ccc(C(F)(F)F)cc2)C1 (stereo not drawn) [Example 75, 4-acetyl-1-(5-isopropyl-thiophene-2-sulfonyl)-piperazine-2-carboxylic acid 4-trifluoromethyl-benzylamide]	< 6.00	< 6.00		
